The values below are quoted from earlier work in patent US20200038305A1, “Sunscreen or Sunblock Composition” (Divios LLC, priority 2018, published 2020).

In general, Aqueous solubility refers to how much of the substance goes into solution per volume.

SMILES strings stand for the structures.

Take `C=C(C)[C@@H]1CCC(C)=C[C@H]1c1c(O)cc(CCCCC)cc1O` [CBD, cannabidiol]: the Aqueous solubility is 10 µg/mL.
